From patent publication US20250136595A1, “ACYLATED HETEROCYCLIC QUINAZOLINE DERIVATIVES AS INHIBITORS OF ERBB2” (Enliven Inc., priority 2022, published 2025) come the findings set out here.

For one assay, the target named is Ba/F3 ERBB2 YVMA (Homo sapiens, UniProt P04626, DUP772-775, cells depend on it). In words: Cell viability assay (CellTiter Glo) in Ba/F3 cells engineered to express ERBB2 YVMA. It counts as cell-based, mouse. Conditions: Ba/F3 cells expressing human ERBB2 YVMA mutant, 72 hours, % viability, read-out: Ba/F3 ERBB2 YVMA IC50. The method, boiled down: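 IL-3-independent mouse Ba/F3 line stably transduced with human ERBB2 YVMA, seeded at 3000 cells/well, exposed to serially diluted compound (≤0.1% DMSO) for 72 h at 37° C. ATP read by CellTiter Glo luminescence, normalised to DMSO and media-only controls; sigmoidal nonlinear regression fit.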
For orientation: In ATP-based viability assays light output follows the ATP content of the culture.

Assay [1] deals with T1, phosphorylated ERBB2 (pERBB2) (Homo sapiens, UniProt P04626).
T1 construct: endogenous in cells; host or cells: BT-474
In words: Detection of phosphorylated ERBB2 (pERBB2) by ELISA in BT-474 cells. The format is cell-based. Conditions: four hour incubation with compound. The method, boiled down:
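BT-474 cells treated 4 h at 37 °C, 5% CO2 with four-fold dilutions (10 μM to 0.01 nM final). Lysates analysed by ELISA for pERBB2, TMB read at OD 450 nm. % relative activity normalised to no-cell (low) and 0.1% DMSO-treated (high) controls.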
Background: An ELISA detects its analyte on a solid surface through an enzyme-linked reagent.

Assay [2] addresses T2, phosphorylated EGFR (pEGFR) (Homo sapiens, UniProt P00533).
T2 construct: performed to measure phosphorylated EGFR levels using A431 cells; endogenous in cells; host or cells: A431
The assay can be described thus: Detection of phosphorylated EGFR (pEGFR) in EGF-stimulated A431 cells (AlphaLISA). The format is cell-based. To be noted: A431 cells (10% FBS), 4 hours incubation, EGF 30 ng/mL for 10 minutes. The gist of the method: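 Cells in 10% FBS treated with compound 4 h at 37° C., then stimulated 10 min with 30 ng/mL EGF, lysed, and pEGFR measured by AlphaLISA. Inhibition normalized to DMSO and staurosporine controls; IC50 from four-parameter logistic fit.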

One may read the IC50 as the midpoint of a concentration-inhibition curve.

T2 sequence (P00533 25-1210): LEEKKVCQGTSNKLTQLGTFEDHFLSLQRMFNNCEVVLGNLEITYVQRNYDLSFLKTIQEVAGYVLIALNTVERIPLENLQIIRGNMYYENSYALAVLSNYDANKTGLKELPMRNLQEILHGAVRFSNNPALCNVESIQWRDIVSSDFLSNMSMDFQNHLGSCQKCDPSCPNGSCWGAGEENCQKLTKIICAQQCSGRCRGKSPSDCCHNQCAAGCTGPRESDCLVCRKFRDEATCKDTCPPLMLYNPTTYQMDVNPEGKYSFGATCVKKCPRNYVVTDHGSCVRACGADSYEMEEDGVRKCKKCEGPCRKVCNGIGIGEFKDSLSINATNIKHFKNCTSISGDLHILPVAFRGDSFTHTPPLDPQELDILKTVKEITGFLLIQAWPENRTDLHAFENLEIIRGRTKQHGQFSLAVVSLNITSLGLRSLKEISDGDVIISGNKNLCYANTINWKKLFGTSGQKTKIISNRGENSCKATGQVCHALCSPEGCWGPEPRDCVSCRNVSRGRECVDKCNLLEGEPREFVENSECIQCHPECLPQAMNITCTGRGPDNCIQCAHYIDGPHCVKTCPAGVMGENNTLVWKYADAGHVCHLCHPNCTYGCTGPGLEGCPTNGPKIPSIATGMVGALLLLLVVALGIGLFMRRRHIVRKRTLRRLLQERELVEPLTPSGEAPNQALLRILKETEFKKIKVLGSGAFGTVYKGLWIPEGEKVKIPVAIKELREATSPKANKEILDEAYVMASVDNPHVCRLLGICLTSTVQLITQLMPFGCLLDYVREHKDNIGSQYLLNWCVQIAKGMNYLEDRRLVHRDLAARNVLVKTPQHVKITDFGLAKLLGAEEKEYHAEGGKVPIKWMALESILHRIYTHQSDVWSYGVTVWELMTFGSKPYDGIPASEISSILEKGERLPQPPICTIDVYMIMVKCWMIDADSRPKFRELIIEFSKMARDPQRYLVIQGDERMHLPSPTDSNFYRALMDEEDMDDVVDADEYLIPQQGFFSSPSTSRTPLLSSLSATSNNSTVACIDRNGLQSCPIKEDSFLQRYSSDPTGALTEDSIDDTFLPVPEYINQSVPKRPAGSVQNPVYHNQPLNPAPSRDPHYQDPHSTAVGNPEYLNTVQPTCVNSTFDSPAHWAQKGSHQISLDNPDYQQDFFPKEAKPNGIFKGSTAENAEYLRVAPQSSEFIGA
Sequence of Ba/F3 ERBB2 YVMA (P04626 with tags, fused parts or gaps DUP772-775): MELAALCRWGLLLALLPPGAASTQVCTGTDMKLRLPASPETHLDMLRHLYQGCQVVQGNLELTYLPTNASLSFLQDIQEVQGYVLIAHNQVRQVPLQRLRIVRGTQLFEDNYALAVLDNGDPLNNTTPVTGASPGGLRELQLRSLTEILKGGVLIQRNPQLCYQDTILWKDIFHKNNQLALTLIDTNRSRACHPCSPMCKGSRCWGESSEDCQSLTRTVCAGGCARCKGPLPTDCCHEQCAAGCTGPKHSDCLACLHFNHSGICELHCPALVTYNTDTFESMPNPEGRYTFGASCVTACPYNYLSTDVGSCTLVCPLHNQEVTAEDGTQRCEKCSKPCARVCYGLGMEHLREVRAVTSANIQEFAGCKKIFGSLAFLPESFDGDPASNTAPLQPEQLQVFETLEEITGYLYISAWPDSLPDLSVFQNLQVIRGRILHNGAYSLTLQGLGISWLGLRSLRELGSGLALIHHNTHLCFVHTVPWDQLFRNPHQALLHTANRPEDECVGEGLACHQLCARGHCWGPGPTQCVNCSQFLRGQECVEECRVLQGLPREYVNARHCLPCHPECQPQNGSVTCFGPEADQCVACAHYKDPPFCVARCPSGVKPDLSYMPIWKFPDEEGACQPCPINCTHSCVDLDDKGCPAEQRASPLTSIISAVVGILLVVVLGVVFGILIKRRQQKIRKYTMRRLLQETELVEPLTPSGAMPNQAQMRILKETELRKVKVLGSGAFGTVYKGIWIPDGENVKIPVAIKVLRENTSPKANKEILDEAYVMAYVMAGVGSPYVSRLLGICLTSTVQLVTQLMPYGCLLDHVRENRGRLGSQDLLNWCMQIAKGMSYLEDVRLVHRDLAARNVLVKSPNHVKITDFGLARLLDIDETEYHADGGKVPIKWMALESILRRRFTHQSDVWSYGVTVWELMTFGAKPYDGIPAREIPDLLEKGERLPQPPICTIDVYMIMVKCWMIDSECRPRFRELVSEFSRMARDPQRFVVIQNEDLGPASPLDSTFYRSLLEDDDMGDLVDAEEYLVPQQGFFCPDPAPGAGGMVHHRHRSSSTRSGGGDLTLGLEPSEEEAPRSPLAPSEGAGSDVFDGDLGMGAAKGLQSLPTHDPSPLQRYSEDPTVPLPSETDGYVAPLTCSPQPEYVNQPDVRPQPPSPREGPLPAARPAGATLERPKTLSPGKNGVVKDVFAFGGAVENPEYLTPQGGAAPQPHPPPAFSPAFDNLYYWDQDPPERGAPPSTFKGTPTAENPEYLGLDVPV
T1 sequence (P04626 23-1255): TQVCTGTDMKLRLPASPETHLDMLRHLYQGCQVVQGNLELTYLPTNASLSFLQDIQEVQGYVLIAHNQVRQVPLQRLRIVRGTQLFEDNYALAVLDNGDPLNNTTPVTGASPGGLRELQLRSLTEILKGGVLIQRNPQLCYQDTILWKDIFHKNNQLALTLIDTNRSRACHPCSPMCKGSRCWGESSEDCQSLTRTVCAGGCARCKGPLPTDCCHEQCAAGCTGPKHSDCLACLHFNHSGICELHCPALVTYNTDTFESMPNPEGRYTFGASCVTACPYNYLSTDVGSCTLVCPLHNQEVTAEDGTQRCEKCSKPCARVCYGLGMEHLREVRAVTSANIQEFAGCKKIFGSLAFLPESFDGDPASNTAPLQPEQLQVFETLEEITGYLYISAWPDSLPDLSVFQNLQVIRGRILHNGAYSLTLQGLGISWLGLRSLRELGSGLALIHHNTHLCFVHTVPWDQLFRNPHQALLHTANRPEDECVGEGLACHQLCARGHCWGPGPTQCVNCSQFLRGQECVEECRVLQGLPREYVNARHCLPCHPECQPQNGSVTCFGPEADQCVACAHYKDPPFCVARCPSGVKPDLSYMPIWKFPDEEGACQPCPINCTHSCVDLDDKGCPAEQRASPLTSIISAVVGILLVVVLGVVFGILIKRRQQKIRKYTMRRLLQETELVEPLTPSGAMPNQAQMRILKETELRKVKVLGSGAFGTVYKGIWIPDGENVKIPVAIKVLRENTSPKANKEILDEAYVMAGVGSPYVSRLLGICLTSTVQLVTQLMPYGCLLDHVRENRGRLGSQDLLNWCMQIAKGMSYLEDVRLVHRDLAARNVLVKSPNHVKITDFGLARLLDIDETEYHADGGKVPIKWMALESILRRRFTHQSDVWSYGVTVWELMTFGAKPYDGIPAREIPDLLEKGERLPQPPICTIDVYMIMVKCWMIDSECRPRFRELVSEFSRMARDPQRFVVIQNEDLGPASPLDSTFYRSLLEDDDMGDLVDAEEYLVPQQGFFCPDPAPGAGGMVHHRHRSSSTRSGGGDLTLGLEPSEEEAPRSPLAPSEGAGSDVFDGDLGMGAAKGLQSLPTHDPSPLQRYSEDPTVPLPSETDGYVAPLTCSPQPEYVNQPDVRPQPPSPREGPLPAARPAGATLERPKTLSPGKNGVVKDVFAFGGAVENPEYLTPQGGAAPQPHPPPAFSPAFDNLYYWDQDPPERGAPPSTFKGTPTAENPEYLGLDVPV

As for `C=CC(=O)N1CCN(c2cc3c(Nc4ccc(Oc5ccc6c(c5)ncn6C)c(C)c4)ncnc3cn2)[C@@H](C)C1` [Compound 107, 1-[(3S)-3-methyl-4-[4-({3-methyl-4-[(1-methyl-1,3-benzodiazol-5-yl)oxy]phenyl}amino)pyrido[3,4-d]pyrimidin-6-yl]piperazin-1-yl]prop-2-en-1-one], on Ba/F3 ERBB2 YVMA, the GI50 amounted to 73.4 nM. Further, the results for the concentration for half-maximal inhibition (IC50) in assay [1] and in assay [2] were 21.8 nM and 2880 nM, respectively.

Turning to `C=CC(=O)N1CCN(c2ccc3ncnc(Nc4ccc(Oc5ccn6ncnc6c5)c(C)c4)c3n2)CC1(C)C` [Compound 108, 1-(4-(4-((4-([1,2,4]triazolo[1,5-a]pyridin-7-yloxy)-3-methylphenyl)amino)pyrido[3,2-d]pyrimidin-6-yl)-2,2-dimethylpiperazin-1-yl)prop-2-en-1-one], on Ba/F3 ERBB2 YVMA, the GI50 is 10.9 nM. Also, the results for the IC50 in assay [1] and in assay [2] were 10 nM and 695 nM, respectively.

Consider `C=CC(=O)N1CCN(c2cc3c(Nc4ccc(Oc5ccn6ncnc6c5)c(C)c4)ncnc3cn2)CC1` [Compound 109, 1-(4-(4-((4-([1,2,4]triazolo[1,5-a]pyridin-7-yloxy)-3-methylphenyl)amino)pyrido[3,4-d]pyrimidin-6-yl)piperazin-1-yl)prop-2-en-1-one], for which the GI50 on Ba/F3 ERBB2 YVMA is 13.4 nM. The IC50 was 10.2 nM in assay [1] and 839 nM in assay [2].

For `C=CC(=O)N1CCN(c2ccc3ncnc(Nc4ccc(Cc5ccn6ncnc6c5)c(C)c4)c3n2)CC1` [Compound 110, 1-(4-(4-((4-([1,2,4]triazolo[1,5-a]pyridin-7-ylmethyl)-3-methylphenyl)amino)pyrido[3,2-d]pyrimidin-6-yl)piperazin-1-yl)prop-2-en-1-one], the GI50 at Ba/F3 ERBB2 YVMA amounted to 13.3 nM. The IC50 was 9.86 nM in assay [1] and 3070 nM in assay [2].

As for `C=CC(=O)N1CCN(c2ncc3ncnc(Nc4ccc(Cc5ccn6ncnc6c5)c(C)c4)c3n2)C[C@H]1C` [Compound 111, (R)-1-(4-(8-((4-([1,2,4]triazolo[1,5-a]pyridin-7-ylmethyl)-3-methylphenyl)amino)pyrimido[5,4-d]pyrimidin-2-yl)-2-methylpiperazin-1-yl)prop-2-en-1-one], the GI50 at Ba/F3 ERBB2 YVMA was found to be 22.7 nM. Further, the IC50 amounted to 28.1 nM in assay [1] and 5460 nM in assay [2].

`C=CC(=O)N1CCN(c2ccc3ncnc(Nc4ccc(Cc5ccn6ncnc6c5)c(C)c4)c3c2)C[C@H]1C` [Compound 112, (R)-1-(4-(4-((4-([1,2,4]triazolo[1,5-a]pyridin-7-ylmethyl)-3-methylphenyl)amino)quinazolin-6-yl)-2-methylpiperazin-1-yl)prop-2-en-1-one]: the GI50 on Ba/F3 ERBB2 YVMA is 28 nM. Also, the IC50 is 33.1 nM in assay [1] and greater than 10000 nM in assay [2].

Take `C=CC(=O)N1CCN(c2ncc3ncnc(Nc4ccc(Cc5ccn6ncnc6c5)c(C)c4)c3n2)[C@@H](C)C1` [Compound 113, 1-[(3S)-3-methyl-4-{8-[(3-methyl-4-{[1,2,4]triazolo[1,5-a]pyridin-7-ylmethyl}phenyl)amino]pyrimido[5,4-d][1,3]diazin-2-yl}piperazin-1-yl]prop-2-en-1-one]: the GI50 on Ba/F3 ERBB2 YVMA is 8.87 nM. Also, the values for the IC50 in assay [1] and in assay [2] were 31.9 nM and greater than 10000 nM, respectively.

Turning to `C=CC(=O)N1CCN(c2ccc3ncnc(Nc4ccc(Oc5ccn6ncnc6c5)c(C)c4)c3c2F)C(C)C1` (stereo not drawn) [Compound 114, 1-(4-{5-fluoro-4-[(3-methyl-4-{[1,2,4]triazolo[1,5-a]pyridin-7-yloxy}phenyl)amino]quinazolin-6-yl}-3-methylpiperazin-1-yl)prop-2-en-1-one], the GI50 at Ba/F3 ERBB2 YVMA was found to be 53.9 nM. In addition, the IC50 in assay [1] was 45.9 nM; in assay [2] it was greater than 10000 nM.

As for `C=CC(=O)N1CCN(c2ncc3ncnc(Nc4ccc(Cc5ccn6ncnc6c5)c(C)c4)c3n2)CC1` [Compound 115, 1-(4-(8-((4-([1,2,4]triazolo[1,5-a]pyridin-7-ylmethyl)-3-methylphenyl)amino)pyrimido[5,4-d]pyrimidin-2-yl)piperazin-1-yl)prop-2-en-1-one], on Ba/F3 ERBB2 YVMA, the GI50 came out at 9.29 nM. The values for the half-maximal inhibitory concentration (IC50) in assay [1] and in assay [2] were 16.9 nM and 4290 nM, respectively.

As for `Cc1cc(Nc2ncnc3ccc(N4CCN(C(=O)/C=C/CN(C)C)[C@H](C)C4)nc23)ccc1Oc1ccn2ncnc2c1` [Compound 116, (R,E)-1-(4-(4-((4-([1,2,4]triazolo[1,5-a]pyridin-7-yloxy)-3-methylphenyl)amino)pyrido[3,2-d]pyrimidin-6-yl)-2-methylpiperazin-1-yl)-4-(dimethylamino)but-2-en-1-one], the GI50 on Ba/F3 ERBB2 YVMA turned out to be 10.1 nM. Also, the results for the IC50 in assay [1] and in assay [2] were 21.9 nM and 1790 nM, respectively.

Regarding `Cc1cc(Nc2ncnc3ccc(N4CCN(C(=O)/C=C/CN(C)C)[C@H](C)C4)nc23)ccc1Cc1ccn2ncnc2c1` [Compound 117, (R,E)-1-(4-(4-((4-([1,2,4]triazolo[1,5-a]pyridin-7-ylmethyl)-3-methylphenyl)amino)pyrido[3,2-d]pyrimidin-6-yl)-2-methylpiperazin-1-yl)-4-(dimethylamino)but-2-en-1-one], the GI50 on Ba/F3 ERBB2 YVMA stood at 25.1 nM. Further, the half-inhibitory concentration (IC50) is 24.5 nM in assay [1] and greater than 10000 nM in assay [2].

`C=CC(=O)N1CCN(c2ccc3ncnc(Nc4ccc(Oc5ccn6ncnc6c5)c(C)c4)c3n2)CC12CC2` [Compound 118, 1-(7-{4-[(3-methyl-4-{[1,2,4]triazolo[1,5-a]pyridin-7-yloxy}phenyl)amino]pyrido[3,2-d]pyrimidin-6-yl}-4,7-diazaspiro[2.5]octan-4-yl)prop-2-en-1-one]: at Ba/F3 ERBB2 YVMA, the GI50 worked out at 7.76 nM. The IC50 in assay [1] was 11.5 nM; in assay [2] it was 107 nM.

As to `C=CC(=O)N1CCN(c2ccc3ncnc(Nc4ccc(Oc5ccc6scnc6c5)c(C)c4)c3n2)CC1` [Compound 119, 1-(4-(4-((4-(benzo[d]thiazol-5-yloxy)-3-methylphenyl)amino)pyrido[3,2-d]pyrimidin-6-yl)piperazin-1-yl)prop-2-en-1-one], the GI50 at Ba/F3 ERBB2 YVMA came out at 4.67 nM. The IC50 in assay [1] was determined as 26 nM; in assay [2] it was 97 nM.

As for `Cc1cc(Nc2ncnc3ccc(N4CCN(C(=O)/C=C/CN(C)C)CC4)nc23)ccc1Cc1ccc2c(c1)ncn2C` [Compound 120, (E)-4-(dimethylamino)-1-(4-(4-((3-methyl-4-((1-methyl-1H-benzo[d]imidazol-5-yl)methyl)phenyl)amino)pyrido[3,2-d]pyrimidin-6-yl)piperazin-1-yl)but-2-en-1-one], the GI50 on Ba/F3 ERBB2 YVMA is 7.1 nM. In addition, the IC50 in assay [1] came out at 36.5 nM; in assay [2] it was 2080 nM.

For the compound `Cc1cc(Nc2ncnc3ccc(N4CCN(C(=O)/C=C/CN(C)C)[C@H](C)C4)nc23)ccc1Cc1ccc2c(c1)ncn2C` [Compound 121, (R,E)-4-(dimethylamino)-1-(2-methyl-4-(4-((3-methyl-4-((1-methyl-1H-benzo[d]imidazol-5-yl)methyl)phenyl)amino)pyrido[3,2-d]pyrimidin-6-yl)piperazin-1-yl)but-2-en-1-one], the GI50 at Ba/F3 ERBB2 YVMA was 9.08 nM. The IC50 in assay [1] was 55.9 nM; in assay [2], 6740 nM.

On to `Cc1cc(Nc2ncnc3cnc(N4CCN(C(=O)/C=C/CN(C)C)[C@H](C)C4)nc23)ccc1Cc1ccn2ncnc2c1` [Compound 122, (R,E)-1-(4-(8-((4-([1,2,4]triazolo[1,5-a]pyridin-7-ylmethyl)-3-methylphenyl)amino)pyrimido[5,4-d]pyrimidin-2-yl)-2-methylpiperazin-1-yl)-4-(dimethylamino)but-2-en-1-one], for which the GI50 at Ba/F3 ERBB2 YVMA was 32.4 nM. For the same compound, the IC50 in assay [1] is 53.2 nM; in assay [2], greater than 10000 nM.

As for `C=CC(=O)N1C2CCC1CN(c1ccc3ncnc(Nc4ccc(Cc5ccc6c(c5)ncn6C)c(C)c4)c3n1)C2` [Compound 123, 1-(3-(4-((3-methyl-4-((1-methyl-1H-benzo[d]imidazol-5-yl)methyl)phenyl)amino)pyrido[3,2-d]pyrimidin-6-yl)-3,8-diazabicyclo[3.2.1]octan-8-yl)prop-2-en-1-one], the GI50 on Ba/F3 ERBB2 YVMA came out at 9.61 nM. For the same compound, the IC50 in assay [1] came out at 53 nM; in assay [2], 1270 nM.

With `C=CC(=O)N1CCN(c2ccc3ncnc(Nc4ccc(Oc5ccc(CC)nc5)c(C)c4)c3n2)CC1` [Compound 124, 1-(4-(4-((4-((6-ethylpyridin-3-yl)oxy)-3-methylphenyl)amino)pyrido[3,2-d]pyrimidin-6-yl)piperazin-1-yl)prop-2-en-1-one], the GI50 on Ba/F3 ERBB2 YVMA worked out at 35.9 nM. Moreover, the half-maximal inhibitory concentration (IC50) in assay [1] amounted to 138 nM; in assay [2], 2580 nM.

For the compound `C=CC(=O)N1CCN(c2ccc3ncnc(Nc4ccc(Cc5ccc6c(c5)ncn6C)c(C)c4)c3c2)[C@@H](C)C1` [Compound 125, (S)-1-(3-methyl-4-(4-((3-methyl-4-((1-methyl-1H-benzo[d]imidazol-5-yl)methyl)phenyl)amino)quinazolin-6-yl)piperazin-1-yl)prop-2-en-1-one], on Ba/F3 ERBB2 YVMA, the GI50 came out at 61.2 nM. For the same compound, the IC50 was 95.9 nM in assay [1] and greater than 10000 nM in assay [2].
